Test results: publication PMC2837273 (Drug metabolism and disposition: the biological fate of …, 2008)
Entries after “also recorded” stand apart in the source; their conditions may differ. Like-named read-outs stand apart in the source and are kept apart here.

Columns and labels:
[1] = target: T1, rat Abcg2 (Rattus norvegicus, UniProt Q80W57); format: cell-based
T1 sequence (Q80W57 1-657): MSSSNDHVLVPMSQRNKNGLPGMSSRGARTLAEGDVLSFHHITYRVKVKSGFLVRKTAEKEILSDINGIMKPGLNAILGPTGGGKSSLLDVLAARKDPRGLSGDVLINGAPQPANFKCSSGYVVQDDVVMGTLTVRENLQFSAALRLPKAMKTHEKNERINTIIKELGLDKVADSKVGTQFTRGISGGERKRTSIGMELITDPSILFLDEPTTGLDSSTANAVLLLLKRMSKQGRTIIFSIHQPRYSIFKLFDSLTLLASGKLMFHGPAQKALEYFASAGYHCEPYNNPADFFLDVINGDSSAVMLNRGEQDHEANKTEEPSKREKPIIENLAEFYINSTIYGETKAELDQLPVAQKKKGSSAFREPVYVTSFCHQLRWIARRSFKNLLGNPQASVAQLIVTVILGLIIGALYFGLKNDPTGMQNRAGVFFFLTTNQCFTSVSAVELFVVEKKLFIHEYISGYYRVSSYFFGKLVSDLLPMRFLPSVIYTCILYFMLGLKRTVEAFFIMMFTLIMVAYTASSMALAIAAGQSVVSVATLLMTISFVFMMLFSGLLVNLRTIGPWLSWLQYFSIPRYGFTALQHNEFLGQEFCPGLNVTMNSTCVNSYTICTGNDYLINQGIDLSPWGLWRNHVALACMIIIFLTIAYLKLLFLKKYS

[2] = tested on: Bcrp1; conditions: ref Merino et al., 2005, cited from earlier work
[3] = tested on: murine Bcrp1; conditions: polarized cell lines; ref Merino et al., 2005; cited from earlier work
[4] = tested on: human BCRP; conditions: polarized cell lines; ref Merino et al., 2005; cited from earlier work
[5] = tested on: Abcg2; assay: GF120918 "chemical knockout" of nitrofurantoin transfer into rat milk; format: in vivo, Sprague Dawley rat; conditions: GF120918 10 mg/kg treated group vs control; lactating rats
[6] = target: T1, rat Abcg2; assay: Hoechst 33342 accumulation in MDCKII-rAbcg2 cells; format: cell-based; conditions: 1 μM GF120918, 10μM Hoechst 33342
[7] = tested on: human ABCG2; conditions: read-out: IC50 on efflux or accumulation; cell lines transfected with human ABCG2; ref Ahmed-Belkacem et al., 2005; Pan et al., 2007; cited from earlier work
[8] = tested on: Abcg2; conditions: wild-type and P-gp deficient mice; ref Cisternino et al., 2004; cited from earlier work
[9] = MDCKII-rat Abcg2 vs MDCKII-empty cells, 10μM nitrofurantoin

Question: Which results are given for `O=C1CN(/N=C/c2ccc([N+](=O)[O-])o2)C(=O)N1` [nitrofurantoin, Nitrofurantoin]?
Answer: decrease in basolateral transport [1, 9]: 55%; increase in apical directed transport [1, 9]: 7.5 fold; area under the concentration time curve, Bcrp1 knockout vs wild-type mice ([2]; intravenous administration): 2 fold; area under the concentration time curve, Bcrp1 knockout vs wild-type mice ([2]; oral administration): 4 fold; transport by murine Bcrp1 [3]: efficiently transported; transport by human BCRP [4]: efficiently transported

Question: For `COc1cc2c(cc1OC)CN(CCc1ccc(NC(=O)c3cccc4c(=O)c5cccc(OC)c5[nH]c34)cc1)CC2` [GF120918, N-(4-[2-(1,2,3,4-tetrahydro-6,7-dimethoxy-2-isoquinolinyl)ethyl]-phenyl)-9,10-dihydro-5-methoxy-9-oxo-4-acridine carboxamide], which “reduction in the M/S of nitrofurantoin” value [5] is on record?
Answer: 93%

Question: What about the “effect on nitrofurantoin transport/efflux by rat Abcg2” value ([1]; 1 μM GF120918, MDCKII-rAbcg2 cells) of the same compound?
Answer: largely reversed; also recorded: effectively inhibit

Question: And the “effect on Hoechst 33342 efflux phenotype (reduced accumulation)” value [6]?
Answer: reversed; also recorded: effectively inhibit

Question: And the IC50 [7]?
Answer: ~300 nM

Question: Which “accumulation in the presence of GF120918” value [8] does the source give for `O=C1c2c(O)ccc(O)c2C(=O)c2c(NCCNCCO)ccc(NCCNCCO)c21` [mitoxantrone] here?
Answer: significantly increased
